Assay: inhibiting or reducing perspiration (antihidrotic effect); statement only, no test described
Conditions: qualitative statement

SMILES: CCC(C)C(C(=O)OC1CC[N+](C)(C)CC1)c1ccccc1.[Br-] (stereo not shown) [4-{[2-(2-butyl)-2-phenylacetyl)oxy]}-1,1-dimethyl-piperidinium bromide]
- efficacy in inhibiting perspiration: very good efficacy in inhibiting perspiration
